Assay results: paper PMC6273446, “Preliminary LC-MS Based Screening for Inhibitors of Plasmodium falciparum Thioredoxin Reductase (PfTrxR) among a Set of Antimalarials from the Malaria Box” (Molecules, 2016)
pEC50, pIC50: −log10 of the molar value. Like-named read-outs stand apart in the source and are kept apart here.

What was measured:
[1] = test system: MRC-5 cells (human fetal lung cells); details: cited from earlier work
[2] = target: T1, Plasmodium falciparum thioredoxin reductase (PfTrxR) (Plasmodium falciparum, UniProt P61076); assay: biochemical; type: biochemical; details: for Hill slope of dose response curve against PfTrxR: Figure 2; for pIC50: cytosolic PfTrxR (PfTrxR 1 isoform), titrated 50 to 0.07 µM
T1 sequence (P61076 1-541 isoform P61076-2): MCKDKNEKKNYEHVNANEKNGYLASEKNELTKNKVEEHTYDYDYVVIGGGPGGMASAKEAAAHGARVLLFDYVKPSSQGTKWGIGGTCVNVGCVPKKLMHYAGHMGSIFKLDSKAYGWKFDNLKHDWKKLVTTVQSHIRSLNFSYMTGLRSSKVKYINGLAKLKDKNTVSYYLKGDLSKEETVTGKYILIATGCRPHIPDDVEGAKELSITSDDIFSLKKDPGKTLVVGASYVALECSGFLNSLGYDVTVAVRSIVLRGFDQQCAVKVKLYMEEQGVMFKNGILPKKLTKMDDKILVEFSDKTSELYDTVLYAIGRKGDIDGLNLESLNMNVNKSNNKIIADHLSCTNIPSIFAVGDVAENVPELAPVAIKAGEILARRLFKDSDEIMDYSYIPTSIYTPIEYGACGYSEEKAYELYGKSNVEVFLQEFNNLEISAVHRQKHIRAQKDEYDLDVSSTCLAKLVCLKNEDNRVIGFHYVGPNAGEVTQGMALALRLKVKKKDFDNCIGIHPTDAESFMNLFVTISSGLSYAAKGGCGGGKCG

P. falciparum 3D7 = details: read-out: Pf(3D7) EC50, cited from earlier work
[3] = read-out: MRC-5 Cells IC50, human fetal lung cells, cytotoxicity, MMV database ref 10
[4] = chloroquine sensitive, sulfadoxine resistant strain, MMV database ref 10

Structure (SMILES)	pIC50 [1, 3]	Hill slope of dose response curve against PfTrxR [2]	pIC50 [2]	pEC50 (P. falciparum 3D7; [4])	pEC50 (P. falciparum 3D7)	pIC50 [1]
CCOc1cc2c(cc1OCC)C(c1cc(OC)c(O)cc1Cl)NCC2 (centres unmarked) [Compound 3, 5-chloro-4-(6,7-diethoxy-1,2,3,4-tetrahydroisoquinolin-1-yl)-2-methoxyphenol]	4.07	0.8022	5.18	6.43	–	–
O=C1C(O)=C([C@H]2CC[C@H](c3ccc(Cl)cc3)CC2)C(=O)c2ccccc21 [Atovaquone, reference compound]	–	–	< 5.00	–	9.62	–
CCCc1c(CC)c(=N)c2ccccc2n1C [Compound 5, 3-ethyl-1-methyl-2-propylquinolin-4-imine;hydron;iodide]	4.15	1.1510	5.12	6.62	–	–
N.N.[Cl][Pt][Cl] [Cisplatin, reference compound]	–	–	–	–	–	4.71
CCN(CC)CCCC(C)Nc1ccnc2cc(Cl)ccc12 (centres unmarked) [Chloroquine, reference compound]	–	–	–	7.56	–	–
COc1ccc(-c2c(C)nn3c(N)c(C#N)cnc23)cc1OC [Compound 4, 7-amino-3-(3,4-dimethoxyphenyl)-2-methylpyrazolo[1,5-a]pyrimidine-6-carbonitrile]	< 4.00	2.0020	–	6.32	–	–
C[C@@H]1CC[C@H]2[C@@H](C)C(=O)O[C@@H]3O[C@@]4(C)CC[C@@H]1[C@]32OO4 [Artemisinin, reference compound]	–	–	–	7.68	–	–
COc1ccccc1NC1=C(N2CCCCC2)C(=O)c2ccccc2C1=O [Compound 2, 2-(2-methoxyanilino)-3-piperidin-1-ylnaphthalene-1,4-dione]	4.16	0.6031	6.05	8.28	–	–
CCc1c(C)c(=N)c2ccccc2n1C [Compound 1, 2-ethyl-1,3-dimethylquinolin-4-imine;hydroiodide]	–	1.1420	5.46	6.42	–	–
